Legend:
[1] = tested on: mouse models with temporary and permanent middle cerebral artery (MCA) occlusion; assay: Ischemic volume (TTC) in stroke models with middle cerebral artery occlusion; type: in vivo; settings: intraperitoneal
From the text: In order to investigate the changes in ischemic volume and modified limb placing test (MLPT) score by treatment with SL (3′-SL & 6′-SL) compositions in stroke models, 4-week-old mice were purchased from Central Lab Animal (Korea). Water was freely accessible, and a commercially available pellet feed (Dooyeul Biotech, Korea) was given for one week. Stroke models involving temporary and permanent middle cerebral artery (MCA) occlusion and intracerebral hemorrhage (ICH) were fabricated using 6-week-old male Sprague-Dawley rats (weight, average 185.3±15.8 g) and male BALB/c mice weight, average 24.6±3.8 g). For the comparison of SL administration effects, the mice, one hour after stroke induction, were randomly grouped into three different intraperitoneal administration groups (8 animals per group, 24 animals in total) below, and then intraperitoneally administered: • Control group: Lysis buffer control group medium intraperitoneal administration group (8 animals) • 3′-SL treatment: 3′-SL lysis buffer medium intraperitoneal administration group (8 animals) • 6′-SL treatment: 6′-SL lysis buffer medium intraperitoneal administration group (8 animals)
Local cerebral infarction mouse models were used as additional cerebral infarction models, and in these models, SL (3′-SL & 6′-SL) was intraperitoneally administered 3 hours after cerebral infarction introduction: • Control group: Lysis buffer control group medium intraperitoneal administration group (8 animals) • 3′-SL treatment: 3′-SL lysis buffer medium intraperitoneal administration group (8 animals) • 6′-SL treatment: 6′-SL lysis buffer medium intraperitoneal administration group (8 animals)
The ischemic volume measurement was conducted by measuring the volume of the ischemic area (infarct and boundary region thereof) using […] (TTC), 24 hours after ischemic induction, as follows. After brain extraction, the frontal tip was cut into 1 mm thickness, and immersed in 2% TCC solution. The stained slices were then fixed with PBS-4% paraformaldehyde, and the ischemic site and hemispherical region of each slice were measured using an image analysis system. The values due to brain edema were corrected as follows: corrected ischemic volume value: measured ischemic area×1−{[(ipsilateral hemisphere area-contralateral hemisphere area)/contralateral hemisphere]}. The ischemic volume was expressed as a percentage of the total hemispherical volume.

[2] = tested on: telomerase; assay: Telomerase activity (TRAP) in vitro, MASMs of arteriosclerosis models; type: cell-based, mouse; settings: MASMs of ApoE−/− control group, cultured 1 day with SL
Protocol: In FIG. 20, the telomerase activity was measured using TRAP protocol (Wright et al., 1995). In summary, cell pellets were lysed in CHAPS lysis solvent (containing ribonuclease inhibitor), followed by incubation at 4° C. for 30 minutes. Cell extracts ([…]) were TRAPeze reaction mix (telomerase substrate (TS) primer, fluorescent-labeled RP (reverse) primer, control standard template, and sulforhodamine-labeled standard K2 primer). The TS primer was elongated at 30° C. for 30 minutes, and then PCR was performed. The fluorescence of the thus obtained TRAP product was measured using a fluorescent plate reader to quantify telomerase activity. Relative telomerase activity was normalized by the ratio of native […] to sulforhodamine (internal control standard), expressed as a percentage. Fluorescein (M0250) was purchased from Marker Gene Technologies, Inc. H2-dichlorofluorescin diacetate (DCFDA) was purchased from Molecular Probes. MitoSOX™ Red, MitoTracker Green FM, and MitoTracker® Orange CMTMRos (MTO) were purchased from Invitrogen. 10,000× SYBR® Gold dye was purchased from Molecular Probes, Inc. Nuclear/Cytosol fractionation kit (K266-100) was purchased from BioVision. TRAPeze® XL telomerase detection kit (S7707) was purchased from MILLIPORE. Telomere PNA FISH Kit/Cy3 (K5326) was purchased from Dako. […]

[3] = tested on: mouse aortic smooth muscle cells (MASMs); assay: Intracellular H2O2 (ROS values, H2DCFDA) in MASMs of arteriosclerosis model mice; type: cell-based; settings: MASMs from PGC-1α+/+ApoE−/− mice; SL added to culture liquid
Protocol: For cell-level tests, mouse aortic smooth muscle cells (MASMs) were isolated from the control group fed with a high-fat diet (Rodent Diet with 60 kcal % fat) without SL administration (Griendling et al., 1991), and the SL (3′-SL & 6′-SL) compositions were added to the culture liquid, followed by comparison. For intracellular H2O2 measurement (ROS values), the cells were cultured in 12-well culture plates immersed in 0.1% bovine calf serum. The intracellular ROS values were measured using H2DCFDA. For assay, the cells were cultured together with H2DCFDA in HBSS buffer for 30 minutes. The cells were trypsinized, washed, and lysed in HBSS. The fluorescence values were measured immediately by a CytoFluor plate reader (FIG. 19a).
In FIGS. 19a and 19b, MASMs were extracted from the model mouse (PGC-1α^+/+ApoE^−/−) control group, and the SL (3′-SL & 6′-SL) compositions were added to the culture liquid to conduct comparison.
FIGS. 19a and 19b show the measurement results of intercellular H2O2 (ROS values) (FIG. 19a) and the measurement results of mitochondrial superoxide production (FIG. 19b). MASMs were extracted from the model mice (PGC-1α^+/+ApoE^−/−), and the SL (3′-SL & 6′-SL) compositions were added to the culture liquid to conduct comparison.

| Compound | reduction of ischemic volume ([1]; all models, 24 hours after ischemic induction) | reduction of ischemic volume ([1]; local cerebellar permanent ischemia models) [%] | reduction of ischemic volume ([1]; local cerebellar temporal ischemia models) [%] | reduction of ischemic volume ([1]; local cerebral permanent occlusion models) [%] | telomerase activity in MASMs (in vitro) [2] | intracellular H2O2 (ROS values) [3] | ischemic neuronal damage protective effects ([1]; MCA occlusion models) |
| --- | --- | --- | --- | --- | --- | --- | --- |
| CC(=O)N[C@H]1[C@H]([C@H](O)[C@H](O)CO)O[C@@](OC[C@H]2O[C@@H](O[C@H]3[C@H](O)[C@@H](O)[C@H](O)O[C@@H]3CO)[C@H](O)[C@@H](O)[C@H]2O)(C(=O)O)C[C@@H]1O [6′-SL, α-NeuNAc-(2→6)-β-D-Gal-(1→4)-D-Glc] | about 50% | 50 | 60 | 40 | increased telomerase activity | dropped the ROS values | – |
| CC(=O)N[C@H]1[C@H]([C@H](O)[C@H](O)CO)O[C@@](O[C@H]2[C@@H](O)[C@@H](CO)O[C@@H](O[C@H]3[C@H](O)[C@@H](O)C(O)O[C@@H]3CO)[C@@H]2O)(C(=O)O)C[C@@H]1O (stereo partly drawn) [3′-SL, α-NeuNAc-(2→3)-β-D-Gal-(1→4)-D-Glc] | – | – | – | – | increased telomerase activity | dropped the ROS values | relatively low compared with 6′-SL |

Reference: patent publication US20190030053A1, “COMPOSITION FOR INCREASING EXPRESSION OF PGC-1alpha” (BENEBIOSIS CO., LTD., priority 2016, published 2019)
